According to patent US9050341B2, “Methods of treating drug resistant and other tumors by administering 6,7-dialkoxy quinazoline derivatives” (NATCO PHARMA LIMITED, priority 2009, dated 2015):

What was measured:
Assay in all cases: KinomeScan kinase profiling
Type in all cases: binding
BRSK1 = target: T1, BRSK1 (Homo sapiens, UniProt Q8TDC3)
T1 construct: purchased Ambit Biosciences Corp (KinomeScan); host or cells: E. coli host derived from the BL21 strain, T7 phage
Outline: (§1)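 Kinases were expressed as T7 phage fusions in a BL21-derived E. coli host and the cleared lysates were used. Ligand beads were blocked with biotin and buffer (1% BSA, 0.05% Tween 20, 1 mM DTT). Compounds came from 40× DMSO stocks, and phage in the eluates was titred by qPCR.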

BTK = target: T2, BTK (Homo sapiens, UniProt Q06187)
T2 construct: purchased Ambit Biosciences Corp (KinomeScan); host or cells: E. coli host derived from the BL21 strain, T7 phage
Outline: as §1

CIT = target: T3, CIT (Homo sapiens, UniProt O14578)
T3 construct: host or cells: T7 phage in E. coli (BL21-derived)
Outline: as §1

CLK4 = target: T4, CLK4 (Homo sapiens, UniProt Q9HAZ1)
T4 construct: host or cells: T7 phage in E. coli (BL21-derived)
Outline: as §1

CSNK1G1 = target: T5, CSNK1G1 (Homo sapiens, UniProt Q9HCP0)
T5 construct: purchased Ambit Biosciences Corp (KinomeScan); host or cells: T7 phage in E. coli host derived from BL21
Outline: as §1

DAPK1 = target: T6, DAPK1 (Homo sapiens, UniProt P53355)
T6 construct: purchased Ambit Biosciences Corp (KinomeScan); host or cells: T7 phage in E. coli host derived from BL21
Outline: as §1

DRAK1 = target: T7, DRAK1 (Homo sapiens, UniProt Q9UEE5)
T7 construct: purchased Ambit Biosciences Corp (KinomeScan); host or cells: T7 phage in E. coli host derived from BL21
Outline: as §1

[1] = target: T8, EGFR (L747-E749del, A750P) (Homo sapiens, UniProt P00533, A750P/DEL747-749)
T8 construct: purchased Ambit Biosciences Corp (KinomeScan); host or cells: T7 phage in E. coli host derived from BL21
Outline: as §1

EGFR (L861Q) = target: T9, EGFR (L861Q) (Homo sapiens, UniProt P00533, L861Q)
T9 construct: host or cells: E. coli host derived from BL21, T7 phage lysate
Outline: as §1

EPHA6 = target: T10, EPHA6 (Homo sapiens, UniProt Q9UF33)
T10 construct: host or cells: E. coli host derived from BL21, T7 phage lysate
Outline: as §1

HIPK1 = target: T11, HIPK1 (Homo sapiens, UniProt Q86Z02)
T11 construct: host or cells: E. coli host derived from BL21, infected with T7 phage
Outline: as §1

LOK = target: T12, LOK (Homo sapiens, UniProt O94804)
T12 construct: host or cells: E. coli derived from BL21, infected with T7 phage
Outline: as §1

LYN = target: T13, LYN (Homo sapiens, UniProt P07948)
T13 construct: host or cells: E. coli derived from BL21, infected with T7 phage
Outline: as §1

MELK = target: T14, MELK (Homo sapiens, UniProt Q14680)
T14 construct: host or cells: E. coli derived from BL21, infected with T7 phage
Outline: as §1

MET = target: T15, MET (Homo sapiens, UniProt P08581)
T15 construct: host or cells: E. coli derived from BL21, infected with T7 phage
Outline: as §1

MLK2 = target: T16, MLK2 (Homo sapiens, UniProt Q02779)
T16 construct: host or cells: T7 phage in E. coli host derived from BL21
Outline: as §1

MYLK = target: T17, MYLK (Homo sapiens, UniProt Q15746)
T17 construct: host or cells: T7 phage in E. coli host derived from BL21
Outline: as §1

MYLK2 = target: T18, MYLK2 (Homo sapiens, UniProt Q9H1R3)
T18 construct: host or cells: T7 phage in E. coli host derived from BL21
Outline: as §1

NDR2 = target: T19, NDR2 (Homo sapiens, UniProt Q9Y2H1)
T19 construct: host or cells: T7 phage in E. coli host derived from BL21
Outline: as §1

PDGFRA = target: T20, PDGFRA (Homo sapiens, UniProt P16234)
T20 construct: host or cells: E. coli host derived from the BL21 strain, infected with T7 phage
Outline: as §1

PIK3CA = target: T21, PIK3CA (Homo sapiens, UniProt P42336)
T21 construct: host or cells: E. coli host derived from the BL21 strain, infected with T7 phage
Outline: as §1

RET (V804L) = target: T22, RET (V804L) (Homo sapiens, UniProt P07949, V804L)
T22 construct: host or cells: E. coli host derived from BL21, T7 phage lysate
Outline: as §1

RIPK2 = target: T23, RIPK2 (Homo sapiens, UniProt O43353)
T23 construct: host or cells: E. coli host derived from BL21, T7 phage lysate
Outline: as §1

TGFBR2 = target: T24, TGFBR2 (Homo sapiens, UniProt P37173)
T24 construct: host or cells: E. coli host derived from the BL21 strain, T7 phage lysate
Outline: as §1

T18 sequence (Q9H1R3 whole entry): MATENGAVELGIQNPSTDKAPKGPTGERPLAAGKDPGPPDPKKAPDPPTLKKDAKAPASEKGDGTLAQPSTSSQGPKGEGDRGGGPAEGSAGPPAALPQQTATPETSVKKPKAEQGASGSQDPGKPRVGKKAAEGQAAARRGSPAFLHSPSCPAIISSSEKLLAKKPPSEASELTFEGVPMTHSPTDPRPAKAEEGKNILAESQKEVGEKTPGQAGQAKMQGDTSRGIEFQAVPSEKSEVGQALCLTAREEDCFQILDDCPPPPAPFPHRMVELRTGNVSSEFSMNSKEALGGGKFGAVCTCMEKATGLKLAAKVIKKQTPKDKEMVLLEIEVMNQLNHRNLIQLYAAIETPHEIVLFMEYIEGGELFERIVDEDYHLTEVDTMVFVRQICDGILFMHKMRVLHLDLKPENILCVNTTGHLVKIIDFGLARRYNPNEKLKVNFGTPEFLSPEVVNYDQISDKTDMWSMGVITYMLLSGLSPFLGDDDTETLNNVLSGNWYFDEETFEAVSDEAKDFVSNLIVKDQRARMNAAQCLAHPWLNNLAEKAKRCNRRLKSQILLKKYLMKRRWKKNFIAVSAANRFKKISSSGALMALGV
T19 sequence (Q9Y2H1 whole entry): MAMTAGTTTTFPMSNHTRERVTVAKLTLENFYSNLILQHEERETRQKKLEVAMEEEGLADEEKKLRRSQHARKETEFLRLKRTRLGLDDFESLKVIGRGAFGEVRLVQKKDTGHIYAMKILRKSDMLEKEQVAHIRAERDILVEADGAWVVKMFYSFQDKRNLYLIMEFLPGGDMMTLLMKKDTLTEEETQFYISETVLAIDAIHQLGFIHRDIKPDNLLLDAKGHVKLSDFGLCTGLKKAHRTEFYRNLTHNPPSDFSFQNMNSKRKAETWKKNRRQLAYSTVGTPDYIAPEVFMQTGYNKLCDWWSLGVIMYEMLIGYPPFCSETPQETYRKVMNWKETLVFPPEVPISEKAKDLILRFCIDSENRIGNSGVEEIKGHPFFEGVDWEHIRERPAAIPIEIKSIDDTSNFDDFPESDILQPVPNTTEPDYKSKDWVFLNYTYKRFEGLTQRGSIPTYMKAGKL
T14 sequence (Q14680 whole entry): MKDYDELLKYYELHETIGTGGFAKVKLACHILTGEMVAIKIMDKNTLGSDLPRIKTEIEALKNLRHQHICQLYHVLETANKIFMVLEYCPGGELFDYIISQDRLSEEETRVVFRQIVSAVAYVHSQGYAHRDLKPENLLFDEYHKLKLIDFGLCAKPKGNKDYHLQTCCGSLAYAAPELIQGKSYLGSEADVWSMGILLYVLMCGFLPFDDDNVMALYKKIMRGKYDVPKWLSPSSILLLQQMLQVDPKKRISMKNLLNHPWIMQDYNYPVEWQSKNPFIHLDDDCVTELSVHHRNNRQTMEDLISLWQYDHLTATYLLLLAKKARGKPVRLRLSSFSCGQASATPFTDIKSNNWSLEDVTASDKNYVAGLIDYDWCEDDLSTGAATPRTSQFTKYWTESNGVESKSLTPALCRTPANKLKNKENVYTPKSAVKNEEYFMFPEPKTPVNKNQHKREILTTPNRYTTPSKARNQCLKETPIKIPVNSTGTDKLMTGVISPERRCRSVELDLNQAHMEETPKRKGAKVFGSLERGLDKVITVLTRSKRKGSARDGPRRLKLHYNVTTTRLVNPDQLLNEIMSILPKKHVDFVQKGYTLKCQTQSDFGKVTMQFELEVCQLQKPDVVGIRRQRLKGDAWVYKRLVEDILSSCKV
T13 sequence (P07948 whole entry): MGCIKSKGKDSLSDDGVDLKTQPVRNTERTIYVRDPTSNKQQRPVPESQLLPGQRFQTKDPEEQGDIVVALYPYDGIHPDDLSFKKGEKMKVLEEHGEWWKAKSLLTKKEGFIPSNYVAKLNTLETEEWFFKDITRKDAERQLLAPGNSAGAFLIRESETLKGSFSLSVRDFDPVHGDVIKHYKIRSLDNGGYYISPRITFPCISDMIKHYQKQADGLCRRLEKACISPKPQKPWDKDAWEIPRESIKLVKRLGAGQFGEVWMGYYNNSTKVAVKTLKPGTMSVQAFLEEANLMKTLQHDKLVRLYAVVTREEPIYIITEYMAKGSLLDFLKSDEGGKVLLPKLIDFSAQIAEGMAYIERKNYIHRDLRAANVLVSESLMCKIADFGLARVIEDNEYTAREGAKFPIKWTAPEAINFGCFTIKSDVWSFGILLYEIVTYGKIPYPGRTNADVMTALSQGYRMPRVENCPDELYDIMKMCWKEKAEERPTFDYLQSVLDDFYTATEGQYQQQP
T16 sequence (Q02779 whole entry): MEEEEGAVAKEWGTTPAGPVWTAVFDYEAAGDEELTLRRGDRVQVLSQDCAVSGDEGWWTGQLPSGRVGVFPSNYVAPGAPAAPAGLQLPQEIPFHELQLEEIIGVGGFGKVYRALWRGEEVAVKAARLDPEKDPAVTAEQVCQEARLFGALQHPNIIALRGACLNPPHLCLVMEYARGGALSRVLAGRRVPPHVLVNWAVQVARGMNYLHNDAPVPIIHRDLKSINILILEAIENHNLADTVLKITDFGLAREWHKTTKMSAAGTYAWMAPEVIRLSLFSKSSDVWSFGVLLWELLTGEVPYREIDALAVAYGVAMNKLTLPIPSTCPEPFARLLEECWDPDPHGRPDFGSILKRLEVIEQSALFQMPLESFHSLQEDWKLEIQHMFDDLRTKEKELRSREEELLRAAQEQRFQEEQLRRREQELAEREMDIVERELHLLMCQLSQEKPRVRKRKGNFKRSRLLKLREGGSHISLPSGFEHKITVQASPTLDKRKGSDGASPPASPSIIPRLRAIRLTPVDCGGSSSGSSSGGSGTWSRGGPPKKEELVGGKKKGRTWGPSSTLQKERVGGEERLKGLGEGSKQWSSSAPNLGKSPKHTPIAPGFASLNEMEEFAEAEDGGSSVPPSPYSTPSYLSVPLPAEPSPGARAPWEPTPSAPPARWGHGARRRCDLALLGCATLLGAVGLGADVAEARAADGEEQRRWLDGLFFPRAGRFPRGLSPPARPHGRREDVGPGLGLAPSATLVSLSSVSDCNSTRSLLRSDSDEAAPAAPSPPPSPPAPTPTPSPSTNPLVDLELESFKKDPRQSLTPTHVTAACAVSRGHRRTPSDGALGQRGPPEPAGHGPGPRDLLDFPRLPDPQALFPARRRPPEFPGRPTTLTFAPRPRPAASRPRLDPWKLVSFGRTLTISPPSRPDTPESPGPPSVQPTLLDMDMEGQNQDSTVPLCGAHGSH
T2 sequence (Q06187 whole entry): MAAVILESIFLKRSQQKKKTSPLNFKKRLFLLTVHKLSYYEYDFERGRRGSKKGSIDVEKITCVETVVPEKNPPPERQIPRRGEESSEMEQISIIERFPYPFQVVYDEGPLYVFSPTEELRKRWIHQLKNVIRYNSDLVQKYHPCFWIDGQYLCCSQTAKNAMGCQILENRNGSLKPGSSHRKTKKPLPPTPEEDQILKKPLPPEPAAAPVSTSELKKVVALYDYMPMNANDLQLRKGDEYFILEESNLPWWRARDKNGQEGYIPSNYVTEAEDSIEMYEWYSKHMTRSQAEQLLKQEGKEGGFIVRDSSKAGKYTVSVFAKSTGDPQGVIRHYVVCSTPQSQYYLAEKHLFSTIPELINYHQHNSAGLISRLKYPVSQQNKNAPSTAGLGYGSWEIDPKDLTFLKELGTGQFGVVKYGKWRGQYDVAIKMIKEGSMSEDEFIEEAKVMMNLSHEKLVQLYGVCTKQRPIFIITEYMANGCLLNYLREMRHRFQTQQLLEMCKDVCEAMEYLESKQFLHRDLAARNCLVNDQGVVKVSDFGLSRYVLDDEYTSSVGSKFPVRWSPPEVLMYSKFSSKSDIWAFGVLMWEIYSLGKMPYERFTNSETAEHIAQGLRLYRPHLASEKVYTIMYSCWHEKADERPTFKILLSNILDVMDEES
T12 sequence (O94804 whole entry): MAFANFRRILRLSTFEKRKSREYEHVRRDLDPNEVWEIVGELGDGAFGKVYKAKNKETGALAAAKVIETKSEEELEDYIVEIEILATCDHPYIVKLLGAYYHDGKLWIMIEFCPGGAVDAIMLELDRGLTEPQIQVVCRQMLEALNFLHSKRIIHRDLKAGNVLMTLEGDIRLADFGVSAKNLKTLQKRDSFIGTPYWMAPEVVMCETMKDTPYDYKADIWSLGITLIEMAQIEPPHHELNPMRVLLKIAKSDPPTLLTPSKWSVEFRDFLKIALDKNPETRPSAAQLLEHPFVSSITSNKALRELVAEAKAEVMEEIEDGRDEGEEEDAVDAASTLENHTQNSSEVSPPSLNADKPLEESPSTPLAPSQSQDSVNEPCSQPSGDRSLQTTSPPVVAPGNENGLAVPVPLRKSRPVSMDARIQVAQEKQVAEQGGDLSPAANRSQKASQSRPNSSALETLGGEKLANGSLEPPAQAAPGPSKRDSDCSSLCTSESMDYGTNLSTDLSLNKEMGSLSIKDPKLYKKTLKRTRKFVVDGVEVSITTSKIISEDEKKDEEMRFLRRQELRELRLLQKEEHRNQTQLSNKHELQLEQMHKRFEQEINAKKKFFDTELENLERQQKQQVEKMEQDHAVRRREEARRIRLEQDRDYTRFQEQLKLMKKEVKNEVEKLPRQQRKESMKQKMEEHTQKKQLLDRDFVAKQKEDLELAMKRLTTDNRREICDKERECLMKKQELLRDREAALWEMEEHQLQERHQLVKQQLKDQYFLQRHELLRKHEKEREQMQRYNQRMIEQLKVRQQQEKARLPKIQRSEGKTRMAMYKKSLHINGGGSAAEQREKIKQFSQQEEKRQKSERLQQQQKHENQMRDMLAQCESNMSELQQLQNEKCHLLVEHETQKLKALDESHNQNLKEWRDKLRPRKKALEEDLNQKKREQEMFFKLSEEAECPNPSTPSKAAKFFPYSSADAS

## C#Cc1cccc(Nc2ncnc3cc(OC)c(OCCCN4CCOCC4)cc23)c1 [NRC-2694, N-(3-ethylnylphenyl)-7-methoxy-6-[3-(4-morpholinyl)propoxy]-4-quinazolinamine]
BRSK1
  % Ctrl @ 10000 nM: 53 % Ctrl
BTK
  % Ctrl @ 10000 nM: 77 % Ctrl
CIT
  % Ctrl @ 10000 nM: 5.0 % Ctrl
CLK4
  % Ctrl @ 10000 nM: 17 % Ctrl
CSNK1G1
  % Ctrl @ 10000 nM: 55 % Ctrl
DAPK1
  % Ctrl @ 10000 nM: 26 % Ctrl
DRAK1
  % Ctrl @ 10000 nM: 51 % Ctrl
[1]
  % Ctrl @ 10000 nM: 0 % Ctrl
EGFR (L861Q)
  % Ctrl @ 10000 nM: 0 % Ctrl
EPHA6
  % Ctrl @ 10000 nM: 25 % Ctrl
HIPK1
  % Ctrl @ 10000 nM: 70 % Ctrl
LOK
  % Ctrl @ 10000 nM: 0 % Ctrl
LYN
  % Ctrl @ 10000 nM: 13 % Ctrl
MELK
  % Ctrl @ 10000 nM: 57 % Ctrl
MET
  % Ctrl @ 10000 nM: 33 % Ctrl
MLK2
  % Ctrl @ 10000 nM: 83 % Ctrl
MYLK
  % Ctrl @ 10000 nM: 62 % Ctrl
MYLK2
  % Ctrl @ 10000 nM: 4.8 % Ctrl
NDR2
  % Ctrl @ 10000 nM: 74 % Ctrl
PDGFRA
  % Ctrl @ 10000 nM: 50 % Ctrl
PIK3CA
  % Ctrl @ 10000 nM: 100 % Ctrl
RET (V804L)
  % Ctrl @ 10000 nM: 81 % Ctrl
RIPK2
  % Ctrl @ 10000 nM: 2.4 % Ctrl
TGFBR2
  % Ctrl @ 10000 nM: 86 % Ctrl
